Test results reported in article PMC6467816 (Journal of peptide science : an official publication of the …, 2019).
Peptide text beside a SMILES is read from it.

How the values were obtained:
[1] = tested on: viruses pseudotyped with vesicular stomatitis virus glycoprotein, VSV-G; type: cell-based
chymotrypsin = details: cited from earlier work
[2] = In vitro stability to proteolysis in human serum; type: in vitro ADME; details: 24 h treatment, 37 °C, RP-HPLC 280 nm
HOS.CD4.CCR5 cells = experiment: MTT; type: cell-based; details: concentrations 50 fold higher than IC50 values, 24 hours continuous cellular exposure
trypsin = details: cited from earlier work
[3] = rat, in vivo; cited from earlier work
[4] = Pharmacokinetic analysis after intravenous bolus in rats; type: in vivo, Sprague-Dawley rats

SMILES | Inhibition of VSV-G pseudotyped virus [1] | Resistance to proteolysis by chymotrypsin (chymotrypsin) | Stability to human serum protease mixture [2] | Toxicity in target HOS.CD4.CCR5 cells (HOS.CD4.CCR5 cells) | Resistance to proteolysis by trypsin (trypsin) | Clearance rate [3] | Time over which plasma level was detectable ([4]; after tail vein administration to rats, fluorescence) | AUC(0-inf) ([4]; rat, in vivo, iv, 0.01 mg/kg) | Vd ([4]; rat, in vivo, iv, 0.01 mg/kg) | clearance ([4]; rat, in vivo, iv, 0.01 mg/kg, CL (ml/h), clearance, intravenous bolus 0.01 mg/kg FITC (equiv), Sprague-Dawley rats) | half-life ([4]; rat, in vivo, iv, 0.01 mg/kg, t1/2α (h), distribution half life, intravenous bolus 0.01 mg/kg FITC (equiv), Sprague-Dawley rats) | half-life ([4]; rat, in vivo, iv, 0.01 mg/kg, t1/2β (h), elimination half life, intravenous bolus 0.01 mg/kg FITC (equiv), Sprague-Dawley rats)
CC[C@H](C)[C@@H]1NC(=O)[C@H](CC(N)=O)NC(=O)[C@@H](N)CC(=O)NCCCC[C@@H](C(N)=O)NC(=O)[C@H](Cc2c[nH]c3ccccc23)NC(=O)[C@@H]2C[C@H](n3cc(C4=CC=C[CH]4[Fe][CH]4C=CC=C4)nn3)CN2C1=O (stereo partly shown) [AAR029b] (HELM PEPTIDE1{D.N.I.[O=C([C@@H]1C[C@H](n2cc(C3=CC=C[CH]3[Fe][CH]3C=CC=C3)nn2)CN1[*:1])[*:2]].W.K.[am]}$PEPTIDE1,PEPTIDE1,1:R3-6:R3$$$V2.0; N-terminus and C-terminus assumed) | did not inhibit | resistant to proteolysis | intact | No toxicity | resistant to proteolysis |  |  |  |  |  |  | 
COc1ccnc2[nH]cc(C(=O)C(=O)N3CCN(C(=O)c4ccccc4)C[C@H]3C)c12 [BMS-378806] |  |  |  |  |  | ~ 1800 mL/h |  |  |  |  |  | 
CC[C@H](C)[C@@H]1NC(=O)[C@H](CC(N)=O)NC(=O)[C@@H](NC(=S)Nc2ccc3c(c2)C(=O)OC32c3ccc(O)cc3Oc3cc(O)ccc32)CC(=O)NCCCC[C@@H](C(N)=O)NC(=O)[C@H](Cc2c[nH]c3ccccc23)NC(=O)[C@@H]2C[C@H](n3cc(C4=CC=C[CH]4[Fe][CH]4C=CC=C4)nn3)CN2C1=O (stereo partly shown) [FITC-AAR029b] (HELM PEPTIDE1{[O=C1OC2(c3ccc(O)cc3Oc3cc(O)ccc32)c2ccc(NC(=S)[*:2])cc21].D.N.I.[O=C([C@@H]1C[C@H](n2cc(C3=CC=C[CH]3[Fe][CH]3C=CC=C3)nn2)CN1[*:1])[*:2]].W.K.[am]}$PEPTIDE1,PEPTIDE1,2:R3-7:R3$$$V2.0; C-terminus assumed) |  |  | intact |  |  |  | ≤ 7 h | 40 ± 40 ng·h/mL | 0.542 ± 0.119 L | 2.27 mL/min | 0.029 ± 0.01 h | ~3 h
